Key:
Type in all cases: cell-based
[1] = tested on: E. coli BL21; experiment: MIC against Gram-negative bacteria: E. coli BL21
In short: (§1)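 First, colonies from LB agar were grown in LB at 37° C, 185 rpm, to McFarland turbidity 0.5, then centrifuged and resuspended in fresh LB. Next, wells received 5×10^5 CFU/mL bacteria plus two-fold serially diluted EGF domain protein (triplicate). Finally, plates were shaken at 37° C and the no-growth concentration taken as MIC.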

[2] = tested on: Pseudomonas aeruginosa; experiment: MIC against Gram-negative bacteria: Pseudomonas aeruginosa
In short: as §1

[3] = tested on: Proteus mirabilis; experiment: MIC against Gram-negative bacteria: Proteus mirabilis
In short: as §1

[4] = tested on: E. coli DH5α; experiment: Antibacterial activity: MIC and growth curve against E. coli DH5α in 96-well plate; conditions: minimal inhibitory concentration against E. coli DH5α; 96-well plate, 5×10^5 CFU/mL, 37° C., judged after 8 h
In short: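 Log-phase DH5α (OD600 about 0.5, 37° C, 185 rpm in LB) was pelleted, resuspended in fresh LB and seeded at 5×10^5 CFU/mL with recombinant protein at 50, 25 and 12.5 μg/mL (two-fold series), in triplicate. Plates were shaken at 175 rpm, 37° C, and OD600 was read every 30 min. MIC was the lowest concentration with no growth.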

[5] = tested on: Enterobacter cloacae; experiment: MIC against Gram-negative bacteria: Enterobacter cloacae
In short: as §1

[6] = tested on: Serratia marcescens; experiment: MIC against Gram-negative bacteria: Serratia marcescens
In short: as §1

[7] = tested on: Proteus vulgaris; experiment: MIC against Gram-negative bacteria: Proteus vulgaris
In short: as §1

[8] = tested on: Aeromonas hydrophila; experiment: MIC against Gram-negative bacteria: Aeromonas hydrophila
In short: as §1

[9] = tested on: Citrobacter diversus; experiment: MIC against Gram-negative bacteria: Citrobacter diversus
In short: as §1

[10] = tested on: Moraxella catarrhalis; experiment: MIC against Gram-negative bacteria: Moraxella catarrhalis
In short: as §1

[11] = tested on: Klebsiella pneumonia; experiment: MIC against Gram-negative bacteria: Klebsiella pneumonia
In short: as §1

[12] = 96-well plate, 5×10^5 CFU/mL, 37° C., 10 h
[13] = E. coli BL21, 10 h cultivation at 37° C.
[14] = P. aeruginosa, 10 h cultivation at 37° C.
[15] = P. mirabilis, 10 h cultivation at 37° C.
[16] = E. cloacae, 10 h cultivation at 37° C.
[17] = S. marcescens, 10 h cultivation at 37° C.
[18] = P. vulgaris, 10 h cultivation at 37° C.
[19] = A. hydrophila, 10 h cultivation at 37° C.
[20] = C. diversus, 10 h cultivation at 37° C.
[21] = M. catarrhalis, 10 h cultivation at 37° C.
[22] = K. pneumonia, 10 h cultivation at 37° C.

| Substance | MIC [4] [µg/mL] | MIC [1, 13] [µg/mL] | MIC [2, 14] [µg/mL] | MIC [3, 15] [µg/mL] | MIC [5, 16] [µg/mL] | MIC [6, 17] [µg/mL] | MIC [7, 18] [µg/mL] | MIC [8, 19] [µg/mL] | MIC [9, 20] [µg/mL] | MIC [10, 21] [µg/mL] | MIC [11, 22] [µg/mL] | further results |
| --- | --- | --- | --- | --- | --- | --- | --- | --- | --- | --- | --- | --- |
| PRT1472 (LEHPCASLCCGHGTCIDGIGSFSCDCRSGWEGRFCQ; listed as Homo sapiens) | 50 | – | – | – | – | – | – | – | – | – | – | MIC against E. coli BL21 ([1]; E. coli BL21, 5×10^5 CFU/mL, 10 h cultivation at 37° C.): 50 µg/mL; MIC against P. aeruginosa ([2]; Pseudomonas aeruginosa, 5×10^5 CFU/mL, 10 h cultivation at 37° C.): 25 µg/mL; MIC against P. mirabilis ([3]; Proteus mirabilis, 5×10^5 CFU/mL, 10 h cultivation at 37° C.): 12.5 µg/mL; MIC against E. cloacae ([5]; Enterobacter cloacae, 5×10^5 CFU/mL, 10 h cultivation at 37° C.): 12.5 µg/mL; MIC against S. marcescens ([6]; Serratia marcescens, 5×10^5 CFU/mL, 10 h cultivation at 37° C.): 50 µg/mL; MIC against P. vulgaris ([7]; Proteus vulgaris, 5×10^5 CFU/mL, 10 h cultivation at 37° C.): 25 µg/mL; MIC against A. hydrophila ([8]; Aeromonas hydrophila, 5×10^5 CFU/mL, 10 h cultivation at 37° C.): 25 µg/mL; MIC against C. diversus ([9]; Citrobacter diversus, 5×10^5 CFU/mL, 10 h cultivation at 37° C.): 12.5 µg/mL; MIC against M. catarrhalis ([10]; Moraxella catarrhalis, 5×10^5 CFU/mL, 10 h cultivation at 37° C.): 25 µg/mL; MIC against K. pneumonia ([11]; Klebsiella pneumonia, 5×10^5 CFU/mL, 10 h cultivation at 37° C.): 25 µg/mL |
| PRT795 (WGFGCNLTCQCLNGGACNTLDGTCTCAPGWRGEKCE; listed as Homo sapiens) | 50 | – | – | – | – | – | – | – | – | – | – | MIC (μg/mL) E. coli BL21 ([1]; E. coli BL21, 10 h cultivation at 37° C., 5×10^5 CFU/mL): 25 µg/mL; MIC (μg/mL) P. aeruginosa ([2]; P. aeruginosa, 10 h cultivation at 37° C., 5×10^5 CFU/mL): 50 µg/mL; MIC (μg/mL) P. mirabilis ([3]; P. mirabilis, 10 h cultivation at 37° C., 5×10^5 CFU/mL): 25 µg/mL; MIC (μg/mL) E. cloacae ([5]; E. cloacae, 10 h cultivation at 37° C., 5×10^5 CFU/mL): 12.5 µg/mL; MIC (μg/mL) S. marcescens ([6]; S. marcescens, 10 h cultivation at 37° C., 5×10^5 CFU/mL): 50 µg/mL; MIC (μg/mL) P. vulgaris ([7]; P. vulgaris, 10 h cultivation at 37° C., 5×10^5 CFU/mL): 25 µg/mL; MIC (μg/mL) A. hydrophila ([8]; A. hydrophila, 10 h cultivation at 37° C., 5×10^5 CFU/mL): 25 µg/mL; MIC (μg/mL) C. diversus ([9]; C. diversus, 10 h cultivation at 37° C., 5×10^5 CFU/mL): 50 µg/mL; MIC (μg/mL) M. catarrhalis ([10]; M. catarrhalis, 10 h cultivation at 37° C., 5×10^5 CFU/mL): 25 µg/mL; MIC (μg/mL) K. pneumonia ([11]; K. pneumonia, 10 h cultivation at 37° C., 5×10^5 CFU/mL): 50 µg/mL |
| PRT497 (CACPHSPPASFSPTCVLEGDHDFRCDACLLGYEGKHCERCSSSYYGNPQTPGGSCQK; listed as Homo sapiens) | 12.5 | – | – | – | – | – | – | – | – | – | – | MIC against E. coli BL21 [1, 12]: 25 µg/mL; MIC against P. aeruginosa [2, 12]: 50 µg/mL; MIC against P. mirabilis [3, 12]: 50 µg/mL; MIC against E. cloacae [5, 12]: 25 µg/mL; MIC against S. marcescens [6, 12]: 50 µg/mL; MIC against P. vulgaris [7, 12]: 12.5 µg/mL; MIC against A. hydrophila [8, 12]: 50 µg/mL; MIC against C. diversus [9, 12]: 25 µg/mL; MIC against M. catarrhalis [10, 12]: 12.5 µg/mL; MIC against K. pneumonia [11, 12]: 12.5 µg/mL |
| PRT935 (NIDECASNPCLNQGTCFDDISGYTCHCVLPYTGKNCQ; listed as Homo sapiens) | 12.5 | 25 | 25 | 12.5 | 25 | 12.5 | 12.5 | 25 | 100 | 12.5 | 12.5 | – |
| PRT920 (DVDECQLMPNACQNGGTCHNTHGGYNCVCVNGWTGEDCS; listed as Homo sapiens) | 12.5 | 25 | 25 | 50 | 12.5 | 50 | 12.5 | 25 | 50 | 12.5 | 50 | – |
| PRT1024 (DVDECQPSRCHPDAFCYNTPGSFTCQCKPGYQGDGFRCV; listed as Homo sapiens) | 50 | 12.5 | 50 | 12.5 | 12.5 | 12.5 | 50 | 25 | 50 | 25 | 25 | – |
